{
  "source": "paper PMC8389922",
  "about": "“First-in-Class Cyclic Temporin L Analogue: Design, Synthesis, and Antimicrobial Assessment” (Journal of Medicinal Chemistry, 2021)",
  "assay": "Membrane fluidity, Laurdan GP value",
  "conditions": "lipid 100 μM, Laurdan 1 μM, PBS pH 7.4, 25 °C, 10 min; for GPlaurdan DOPG/DOPE/CL + cmpd: LUVs alone –0.14; for GPlaurdan DOPG/CL + cmpd: LUVs alone –0.32",
  "description": "A membrane fluidity study was performed using Laurdan, a probe with the capacity to insert into membranes and to distribute between liquid phases,[66] changing its emission spectrum.[67] In particular, the maximum emission wavelength of Laurdan is 490 nm when phospholipids are in a disordered phase and it shifts to 440 nm when lipids are in a more packed phase. The generalized polarization (GP) parameter was used to measure quantitatively the emission shift of the Laurdan probe.[68] […] LUVs fluidity was evaluated before and after the addition of 12 and 9 at 25 °C. Before the addition of both peptides, emission of LUVs, mimicking both Gram-positive and Gram-negative membranes, indicated the presence of a disordered phase with a maximum at 490 nm (Table 3). […] In fact, GP parameter indicated the presence of a disordered phase for both Gram-positive and Gram-negative liposomes (Table 3).\nLaurdan is extensively used as a fluorescent probe in membrane fluidity study.[79] Laurdan emission spectra encapsulated in large unilamellar vesicles (LUVs) are centered at 490 nm when the lipids are in a disordered phase and the emission shifts to 440 nm when the lipids are in a more packed phase. The preparation of LUVs was performed using the extrusion method.[79] To mimic the lipid composition of Gram-positive and Gram-negative membranes, we used LUVs made of DOPG/CL (58/42 ratio in moles) and DOPG/DOPE/CL (63/23/12 ratio in moles), respectively. First, stock solutions of lipids in chloroform were prepared and the assay was performed using a final lipid concentration of 100 μM. Laurdan (1 μM) was added to chloroform/lipids solution before the evaporation of organic solvent. The mixture of lipids and probe was dried under nitrogen gas stream and freeze-dried overnight. Then, lipid film with Laurdan was hydrated with PBS 1× buffer, pH = 7.4, vortexed for 1 h, and freeze-thawed six times and extruded 10 times through polycarbonate membranes with 0.1 μm diameter pores, obtaining LUVs with encapsulated Laurdan. Stock solutions of 2 mM of linear peptide 9 and lactam-bridged analogue 12 were prepared by dissolving peptides in water. The influence of peptides on membrane fluidity was evaluated at 5 and 30 μM. The peptide was added to LUVs + Laurdan probe, and after 10 min, the fluorescence spectra were recorded using a 1 cm path length quartz cell, thermostated at 25 °C. To measure the Laurdan emission shift and to quantify the variation of membrane fluidity, we calculated the generalized polarization (GP) as GP = (I440 – I490)/(I440 + I490).",
  "note": "Bridge positions count the residues as written; N and C are the ends. Square brackets hold non-standard residues; d marks the D form. Peptide text beside a SMILES is read from it.",
  "data": [
    {"smiles": "CC[C@H](C)[C@H](NC(=O)[C@H](CCCNC(=N)N)NC(=O)[C@@H]1CCC(=O)NCCCC[C@H](NC(=O)[C@H](Cc2ccccc2)NC(=O)[C@H](Cc2c[nH]c3ccccc23)NC(=O)[C@@H]2CCCN2C(=O)[C@@H](NC(=O)[C@@H](N)Cc2ccccc2)C(C)C)C(=O)N[C@@H](CCCCN)C(=O)N[C@@H](Cc2ccccc2)C(=O)N[C@H](CC(C)C)C(=O)N1)C(=O)N[C@@H](CC(C)C)C(N)=O", "note": "[compound 12] (H-FVPWFKKF[dL]ERIL-NH2; lactam 6-10)", "values": [
      {"measurement": "GPlaurdan DOPG/DOPE/CL + cmpd", "setting": "peptide 5 μM", "value": "–0.07"},
      {"measurement": "GPlaurdan DOPG/CL + cmpd", "setting": "peptide 5 μM", "value": "–0.23"},
      {"measurement": "GPlaurdan DOPG/DOPE/CL + cmpd", "setting": "peptide 30 μM", "value": 0.1},
      {"measurement": "GPlaurdan DOPG/CL + cmpd", "setting": "peptide 30 μM", "value": 0.04}
    ]}
  ]
}
